# Measured values as given in publication PMC3875304 (Journal of medicinal chemistry, 2009).
# Entries after “also recorded” stand apart in the source; their conditions may differ. Read-outs that look alike come from different tables or passages of the source.
# Key:
# M1 [1] = biological target: T1, M1 (Homo sapiens, UniProt P11229); experiment: Ca2+ mobilization potentiation of ACh ~EC20, M1 CHO cells; assay type: cell-based
# T1 sequence (P11229 1-460): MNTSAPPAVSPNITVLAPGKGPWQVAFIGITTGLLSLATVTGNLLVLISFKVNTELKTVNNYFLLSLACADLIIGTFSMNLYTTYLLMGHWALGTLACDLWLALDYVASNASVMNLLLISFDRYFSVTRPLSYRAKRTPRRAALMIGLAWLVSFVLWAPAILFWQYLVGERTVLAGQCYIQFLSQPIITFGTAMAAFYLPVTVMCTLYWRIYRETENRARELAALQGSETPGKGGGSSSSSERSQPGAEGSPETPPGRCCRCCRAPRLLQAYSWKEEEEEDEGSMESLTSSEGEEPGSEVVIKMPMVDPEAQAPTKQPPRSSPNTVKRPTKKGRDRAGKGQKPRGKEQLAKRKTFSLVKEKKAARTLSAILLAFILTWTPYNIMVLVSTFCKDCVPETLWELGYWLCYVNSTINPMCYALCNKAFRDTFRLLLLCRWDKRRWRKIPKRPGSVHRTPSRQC
# M2 = biological target: T2, M2 (Homo sapiens, UniProt P08172); assay type: cell-based; settings: fixed ACh ~EC20, Ca2+ assay, Gqi5 cotransfected, up to 30 µM
# T2 sequence (P08172 1-466): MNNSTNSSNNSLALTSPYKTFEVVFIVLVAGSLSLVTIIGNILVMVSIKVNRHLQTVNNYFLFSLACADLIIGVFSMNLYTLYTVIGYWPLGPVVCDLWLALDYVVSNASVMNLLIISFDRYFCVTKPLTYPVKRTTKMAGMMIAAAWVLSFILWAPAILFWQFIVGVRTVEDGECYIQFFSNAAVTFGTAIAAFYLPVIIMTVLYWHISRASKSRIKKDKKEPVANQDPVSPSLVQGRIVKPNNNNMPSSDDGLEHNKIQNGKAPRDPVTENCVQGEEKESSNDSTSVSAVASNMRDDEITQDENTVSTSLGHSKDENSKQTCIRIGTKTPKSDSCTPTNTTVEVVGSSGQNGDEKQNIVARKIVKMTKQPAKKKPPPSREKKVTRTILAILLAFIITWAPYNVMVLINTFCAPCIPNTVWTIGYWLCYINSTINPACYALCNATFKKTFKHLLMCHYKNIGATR
# M4 = biological target: T3, M4 (Homo sapiens, UniProt P08173); assay type: cell-based; settings: for M4 potentiator activity: fixed ACh ~EC20, Ca2+ assay, Gqi5 cotransfected, up to 30 µM
# T3 sequence (P08173 1-479): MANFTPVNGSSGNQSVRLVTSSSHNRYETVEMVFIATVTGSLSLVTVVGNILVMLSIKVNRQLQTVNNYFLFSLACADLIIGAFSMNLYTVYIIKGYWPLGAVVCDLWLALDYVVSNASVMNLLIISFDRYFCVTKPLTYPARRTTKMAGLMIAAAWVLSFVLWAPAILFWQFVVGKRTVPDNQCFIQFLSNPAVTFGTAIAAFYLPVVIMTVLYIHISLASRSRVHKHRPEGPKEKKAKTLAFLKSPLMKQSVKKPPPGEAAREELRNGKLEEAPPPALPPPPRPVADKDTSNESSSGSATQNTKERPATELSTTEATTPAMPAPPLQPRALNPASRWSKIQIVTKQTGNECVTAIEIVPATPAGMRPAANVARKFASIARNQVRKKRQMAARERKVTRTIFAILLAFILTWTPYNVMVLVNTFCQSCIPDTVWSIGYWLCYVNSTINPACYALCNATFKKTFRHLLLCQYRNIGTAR
# M1 [2] = biological target: T1, M1; settings: fixed 30 µM compound, at M1; cited from earlier work
# M5 [3] = biological target: T4, M5 (Homo sapiens, UniProt P08912); experiment: [3H]-NMS competition binding, M5-CHO membrane preparations; settings: up to 30 µM, M5-CHO membranes
# T4 sequence (P08912 1-532): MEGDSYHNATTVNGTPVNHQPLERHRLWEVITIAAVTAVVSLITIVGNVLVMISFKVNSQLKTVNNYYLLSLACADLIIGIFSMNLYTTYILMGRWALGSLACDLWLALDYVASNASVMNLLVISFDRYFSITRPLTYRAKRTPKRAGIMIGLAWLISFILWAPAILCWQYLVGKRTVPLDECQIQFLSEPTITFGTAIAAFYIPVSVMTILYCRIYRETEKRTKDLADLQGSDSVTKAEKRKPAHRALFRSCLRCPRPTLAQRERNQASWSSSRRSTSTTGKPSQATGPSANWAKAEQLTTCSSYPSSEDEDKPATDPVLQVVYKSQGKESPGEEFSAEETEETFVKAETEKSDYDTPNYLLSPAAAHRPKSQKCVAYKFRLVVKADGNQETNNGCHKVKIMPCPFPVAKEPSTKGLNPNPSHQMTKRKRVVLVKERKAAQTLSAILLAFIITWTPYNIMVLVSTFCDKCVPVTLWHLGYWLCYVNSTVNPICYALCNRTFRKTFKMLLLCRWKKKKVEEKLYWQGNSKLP
# M5 [4] = biological target: T4, M5; experiment: Ca2+ mobilization assay, M5 CHO cells; assay type: cell-based
smiles,measurement,setting,value
COc1cccc(CN2C(=O)C(=O)c3cc(OC(F)(F)F)ccc32)c1 [compound 41],EC50,M1 [1],> 30 µM
O=C1C(=O)N(Cc2ccc(Br)cc2)c2ccccc21 [compound 113],M2 potentiator activity,M2,lacked potentiator effects; also recorded: inactive
same,M4 potentiator activity,M4,lacked potentiator effects; also recorded: inactive
same,leftward shift of full ACh CRC,M1 [2],14 fold
O=C1C(=O)N(Cc2ccc(C(F)(F)F)cc2)c2c(Cl)cccc21 [compound 56],M2 potentiator activity,M2,modest potentiation
same,EC50,M4,> 10 µM
same,M4 potentiator activity,M4,modest potentiation
COc1ccc(CN2C(=O)C(=O)c3cc(OC(F)(F)F)ccc32)cc1 [compound 42],M2 potentiator activity,M2,lack of potentiation activity; also recorded: inactive
same,M2 potentiator activity,M2; listed as VU0238429,no M2 or M4 potentiator activity
same,competition with [3H]-NMS binding to M5,M5 [3],lack of competition; also recorded: lacked competition
same,M4 potentiator activity,M4,lack of potentiation activity; also recorded: inactive
same,M4 potentiator activity,M4; listed as VU0238429,no M2 or M4 potentiator activity
same,intrinsic agonist activity at M5,"M5 [4]; compound alone, absence of ACh, up to 30 µM, Ca2+ assay",absence of intrinsic agonist activity; also recorded: lacked intrinsic agonist activity
same,selectivity for M5 versus M1 and M3,M5 [4]; from EC50 in Ca2+ assays,> 30 fold
same,selectivity for M5 versus the other four subtypes,M5 [4]; from EC50 in Ca2+ assays,> 30 ×
same,EC50,M1 [1],> 30 µM
COc1ccc(CN2C(=O)C(=O)c3ccccc32)cc1 [compound 22],EC50,M1 [1],> 10 µM
Cc1ccccc1CN1C(=O)C(=O)c2cc(OC(F)(F)F)ccc21 [compound 111],EC50,M1 [1],> 30 µM
O=C1C(=O)N(Cc2ccccc2C(F)(F)F)c2c(F)cccc21 [compound 49],EC50,M1 [1],> 30 µM
O=C1C(=O)N(Cc2ccc(Br)cc2F)c2ccc(OC(F)(F)F)cc21 [compound 112],EC50,M1 [1],> 30 µM
O=C1C(=O)N(Cc2ccccc2Cl)c2ccc(OC(F)(F)F)cc21 [compound 64],EC50,M1 [1],> 30 µM
O=C1C(=O)N(Cc2ccc(OC(F)(F)F)cc2)c2ccc(OC(F)(F)F)cc21 [compound 110],EC50,M1 [1],> 30 µM
COc1cccc(CN2C(=O)C(=O)c3c(Cl)ccc(Cl)c32)c1 [compound 38],EC50,M1 [1],> 30 µM
